Columns and labels:
Experiment in all cases: pIC50, kinobeads binding competition
UniProt Q15831 = molecular target: T1, UniProt Q15831
T1 sequence (whole entry): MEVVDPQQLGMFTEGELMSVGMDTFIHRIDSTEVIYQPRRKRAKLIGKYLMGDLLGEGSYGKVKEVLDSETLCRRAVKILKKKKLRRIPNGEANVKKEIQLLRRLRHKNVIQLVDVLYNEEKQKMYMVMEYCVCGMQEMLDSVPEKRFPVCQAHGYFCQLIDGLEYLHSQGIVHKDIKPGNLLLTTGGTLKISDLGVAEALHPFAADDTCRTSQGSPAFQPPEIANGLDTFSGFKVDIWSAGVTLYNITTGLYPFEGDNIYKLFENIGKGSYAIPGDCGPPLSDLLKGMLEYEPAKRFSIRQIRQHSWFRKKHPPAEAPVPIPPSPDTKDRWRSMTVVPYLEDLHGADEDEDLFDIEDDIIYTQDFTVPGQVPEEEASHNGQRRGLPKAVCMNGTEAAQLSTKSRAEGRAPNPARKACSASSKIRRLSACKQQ
Summary of the method: (§1)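 Either living Jurkat cells (60 min at 37 °C, then lysis) or lysates (60 min at 4 °C) were treated with nine compound concentrations from a top of 30 μM, in 1:4 steps for cells and 1:5 steps for lysates. The lysates were from Jurkat cells or a 1:1:1:1 mix of HEK293, K-562, HepG2 and placenta. Kinobeads-bound proteins were digested and quantified by TMT10 LC-MS/MS. pIC50 was calculated by logistic dose-response fitting (R drc package) of fold changes relative to vehicle, in biological duplicates.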

UniProt P36507 = molecular target: UniProt P36507
Summary of the method: as §1

EPHB3 = molecular target: T2, EPHB3 (UniProt P54753); conditions: cell material: Lysate mix
T2 sequence (whole entry): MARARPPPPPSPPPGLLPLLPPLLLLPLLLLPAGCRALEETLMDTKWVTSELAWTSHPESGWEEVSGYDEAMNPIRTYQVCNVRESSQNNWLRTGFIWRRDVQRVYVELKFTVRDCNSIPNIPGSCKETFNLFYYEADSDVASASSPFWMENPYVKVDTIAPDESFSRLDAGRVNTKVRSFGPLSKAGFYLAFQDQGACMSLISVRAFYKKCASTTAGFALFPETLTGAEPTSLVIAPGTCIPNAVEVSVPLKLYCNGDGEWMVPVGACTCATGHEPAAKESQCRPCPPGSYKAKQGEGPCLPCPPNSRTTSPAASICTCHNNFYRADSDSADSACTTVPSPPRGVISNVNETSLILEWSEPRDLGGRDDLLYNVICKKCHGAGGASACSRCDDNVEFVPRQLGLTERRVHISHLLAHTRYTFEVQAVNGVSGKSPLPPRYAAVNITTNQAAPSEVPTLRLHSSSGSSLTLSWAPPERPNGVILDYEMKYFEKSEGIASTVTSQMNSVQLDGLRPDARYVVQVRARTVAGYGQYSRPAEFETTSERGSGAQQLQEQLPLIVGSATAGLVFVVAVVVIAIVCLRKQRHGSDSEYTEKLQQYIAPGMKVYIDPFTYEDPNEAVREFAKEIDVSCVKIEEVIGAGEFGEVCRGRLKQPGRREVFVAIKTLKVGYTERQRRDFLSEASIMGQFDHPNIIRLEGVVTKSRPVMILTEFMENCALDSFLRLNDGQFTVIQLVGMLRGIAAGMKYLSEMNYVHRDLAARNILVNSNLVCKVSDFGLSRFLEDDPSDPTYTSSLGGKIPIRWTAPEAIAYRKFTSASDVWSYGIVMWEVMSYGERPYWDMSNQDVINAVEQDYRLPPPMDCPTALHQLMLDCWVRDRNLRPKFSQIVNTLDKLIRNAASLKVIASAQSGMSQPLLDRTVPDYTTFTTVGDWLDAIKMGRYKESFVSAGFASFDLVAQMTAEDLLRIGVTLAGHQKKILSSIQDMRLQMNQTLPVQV
Summary of the method: as §1

HIPK3 = HIPK3 (UniProt Q9H422)
Summary of the method: as §1

FGFR4 = FGFR4 (UniProt P22455); conditions: cell material: Lysate mix
Summary of the method: as §1

RIPK2 = RIPK2 (UniProt O43353); conditions: cell material: Lysate mix
Summary of the method: as §1

PCTK3 = PCTK3 (UniProt Q07002)
Summary of the method: as §1

PRKX = molecular target: T3, PRKX (UniProt P51817)
T3 sequence (whole entry): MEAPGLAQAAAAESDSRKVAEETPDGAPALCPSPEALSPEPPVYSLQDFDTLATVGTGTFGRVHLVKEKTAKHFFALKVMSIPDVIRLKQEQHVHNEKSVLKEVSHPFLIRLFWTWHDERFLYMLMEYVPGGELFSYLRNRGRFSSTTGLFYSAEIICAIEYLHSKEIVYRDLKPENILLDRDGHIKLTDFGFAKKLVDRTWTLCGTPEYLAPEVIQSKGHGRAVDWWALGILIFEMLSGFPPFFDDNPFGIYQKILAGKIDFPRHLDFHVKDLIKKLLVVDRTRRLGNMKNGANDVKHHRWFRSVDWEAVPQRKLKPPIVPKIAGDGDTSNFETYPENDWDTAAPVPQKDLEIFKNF
Summary of the method: as §1

PKMYT1 = molecular target: T4, PKMYT1 (UniProt Q99640)
T4 sequence (whole entry): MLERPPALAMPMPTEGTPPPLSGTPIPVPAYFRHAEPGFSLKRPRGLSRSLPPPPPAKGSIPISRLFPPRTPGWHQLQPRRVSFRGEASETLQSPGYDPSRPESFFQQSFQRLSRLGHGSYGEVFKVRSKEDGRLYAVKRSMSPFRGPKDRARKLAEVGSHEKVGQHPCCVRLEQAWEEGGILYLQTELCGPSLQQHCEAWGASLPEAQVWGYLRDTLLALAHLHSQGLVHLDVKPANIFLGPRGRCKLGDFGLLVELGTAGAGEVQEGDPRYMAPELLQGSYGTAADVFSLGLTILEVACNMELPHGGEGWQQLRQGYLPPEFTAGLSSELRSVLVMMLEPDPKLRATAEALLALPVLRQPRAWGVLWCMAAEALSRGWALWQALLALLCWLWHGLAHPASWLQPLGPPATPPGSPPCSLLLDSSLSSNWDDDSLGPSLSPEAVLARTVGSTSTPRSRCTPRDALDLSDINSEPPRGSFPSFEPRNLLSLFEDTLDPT
Summary of the method: as §1

Chain of FGFR4 (P22455 whole entry, looked up): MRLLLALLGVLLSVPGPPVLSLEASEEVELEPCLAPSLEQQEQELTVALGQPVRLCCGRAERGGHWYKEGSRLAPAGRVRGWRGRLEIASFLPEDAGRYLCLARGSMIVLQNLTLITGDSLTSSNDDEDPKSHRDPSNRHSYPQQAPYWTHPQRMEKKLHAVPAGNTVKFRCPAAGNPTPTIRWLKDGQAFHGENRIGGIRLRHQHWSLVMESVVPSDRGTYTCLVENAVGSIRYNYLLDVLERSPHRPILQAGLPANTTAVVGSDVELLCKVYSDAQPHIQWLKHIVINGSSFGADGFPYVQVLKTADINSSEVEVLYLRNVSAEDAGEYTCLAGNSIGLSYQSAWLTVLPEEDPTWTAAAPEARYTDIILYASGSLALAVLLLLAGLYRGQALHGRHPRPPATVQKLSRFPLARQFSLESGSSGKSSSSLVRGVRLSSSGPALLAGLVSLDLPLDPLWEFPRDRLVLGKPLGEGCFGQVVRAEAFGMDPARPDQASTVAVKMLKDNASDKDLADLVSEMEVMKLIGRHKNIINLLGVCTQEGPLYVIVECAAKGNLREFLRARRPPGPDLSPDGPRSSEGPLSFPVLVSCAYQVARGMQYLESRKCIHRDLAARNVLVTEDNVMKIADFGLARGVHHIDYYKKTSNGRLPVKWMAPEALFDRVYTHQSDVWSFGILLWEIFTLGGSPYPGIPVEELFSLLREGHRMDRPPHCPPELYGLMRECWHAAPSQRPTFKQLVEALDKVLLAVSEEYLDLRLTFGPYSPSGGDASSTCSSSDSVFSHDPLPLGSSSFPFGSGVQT
Chain of HIPK3 (Q9H422 whole entry, looked up): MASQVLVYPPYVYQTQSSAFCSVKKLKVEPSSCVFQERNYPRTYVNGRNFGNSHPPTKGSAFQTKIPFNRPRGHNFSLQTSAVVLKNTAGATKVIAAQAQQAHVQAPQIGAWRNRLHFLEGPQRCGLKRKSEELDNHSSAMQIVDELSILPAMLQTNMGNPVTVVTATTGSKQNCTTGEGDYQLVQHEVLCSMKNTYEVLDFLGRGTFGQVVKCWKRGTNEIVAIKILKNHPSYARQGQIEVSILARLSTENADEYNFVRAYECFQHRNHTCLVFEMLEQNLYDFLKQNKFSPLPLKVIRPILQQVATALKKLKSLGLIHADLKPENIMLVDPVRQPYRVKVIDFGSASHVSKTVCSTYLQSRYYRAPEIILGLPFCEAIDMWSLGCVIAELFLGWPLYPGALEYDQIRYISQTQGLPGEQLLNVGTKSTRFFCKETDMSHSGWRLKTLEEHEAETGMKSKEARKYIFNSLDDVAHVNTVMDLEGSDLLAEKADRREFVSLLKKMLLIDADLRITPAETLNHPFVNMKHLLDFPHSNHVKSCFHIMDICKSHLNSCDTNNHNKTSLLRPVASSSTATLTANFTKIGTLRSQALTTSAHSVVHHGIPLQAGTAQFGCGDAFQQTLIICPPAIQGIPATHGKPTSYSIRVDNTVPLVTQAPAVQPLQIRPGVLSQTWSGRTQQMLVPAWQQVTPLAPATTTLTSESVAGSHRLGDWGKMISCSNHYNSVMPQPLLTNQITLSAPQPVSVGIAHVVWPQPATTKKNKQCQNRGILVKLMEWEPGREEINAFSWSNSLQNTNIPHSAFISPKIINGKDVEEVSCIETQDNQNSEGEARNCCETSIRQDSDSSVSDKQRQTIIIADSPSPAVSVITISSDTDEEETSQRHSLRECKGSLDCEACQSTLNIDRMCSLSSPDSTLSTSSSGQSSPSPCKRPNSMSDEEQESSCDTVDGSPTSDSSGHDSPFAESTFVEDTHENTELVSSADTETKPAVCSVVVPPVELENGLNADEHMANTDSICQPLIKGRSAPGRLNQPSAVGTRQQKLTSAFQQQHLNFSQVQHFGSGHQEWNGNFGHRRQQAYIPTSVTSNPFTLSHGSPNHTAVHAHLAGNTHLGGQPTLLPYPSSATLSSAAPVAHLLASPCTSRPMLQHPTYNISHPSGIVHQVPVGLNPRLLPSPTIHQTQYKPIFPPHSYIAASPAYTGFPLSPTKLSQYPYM
Chain of UniProt P36507 (P36507 whole entry): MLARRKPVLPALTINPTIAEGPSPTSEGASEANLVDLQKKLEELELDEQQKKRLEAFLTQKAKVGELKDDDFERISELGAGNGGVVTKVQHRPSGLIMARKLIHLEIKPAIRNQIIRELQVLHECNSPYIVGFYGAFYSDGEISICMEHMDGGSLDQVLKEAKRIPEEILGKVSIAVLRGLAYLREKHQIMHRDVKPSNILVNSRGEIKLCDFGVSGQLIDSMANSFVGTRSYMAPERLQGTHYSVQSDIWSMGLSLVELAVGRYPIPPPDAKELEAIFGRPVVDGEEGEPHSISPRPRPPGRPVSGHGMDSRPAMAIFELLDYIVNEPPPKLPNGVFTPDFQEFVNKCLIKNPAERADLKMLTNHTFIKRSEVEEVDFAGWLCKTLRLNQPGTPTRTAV
Chain of PCTK3 (Q07002 whole entry): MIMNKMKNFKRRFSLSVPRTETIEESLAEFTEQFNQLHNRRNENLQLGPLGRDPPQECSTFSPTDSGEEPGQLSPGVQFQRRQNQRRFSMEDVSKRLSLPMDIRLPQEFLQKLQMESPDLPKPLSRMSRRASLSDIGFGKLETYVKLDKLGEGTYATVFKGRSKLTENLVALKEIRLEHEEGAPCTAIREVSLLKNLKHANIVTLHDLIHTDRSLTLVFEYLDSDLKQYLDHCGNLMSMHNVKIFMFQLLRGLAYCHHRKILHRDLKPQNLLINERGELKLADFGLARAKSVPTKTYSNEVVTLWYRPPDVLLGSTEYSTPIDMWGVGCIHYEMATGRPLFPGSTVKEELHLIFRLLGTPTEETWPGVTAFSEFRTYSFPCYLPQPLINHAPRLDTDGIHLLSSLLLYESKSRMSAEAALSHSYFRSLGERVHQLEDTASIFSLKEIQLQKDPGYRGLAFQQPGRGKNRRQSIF
Chain of RIPK2 (O43353 whole entry): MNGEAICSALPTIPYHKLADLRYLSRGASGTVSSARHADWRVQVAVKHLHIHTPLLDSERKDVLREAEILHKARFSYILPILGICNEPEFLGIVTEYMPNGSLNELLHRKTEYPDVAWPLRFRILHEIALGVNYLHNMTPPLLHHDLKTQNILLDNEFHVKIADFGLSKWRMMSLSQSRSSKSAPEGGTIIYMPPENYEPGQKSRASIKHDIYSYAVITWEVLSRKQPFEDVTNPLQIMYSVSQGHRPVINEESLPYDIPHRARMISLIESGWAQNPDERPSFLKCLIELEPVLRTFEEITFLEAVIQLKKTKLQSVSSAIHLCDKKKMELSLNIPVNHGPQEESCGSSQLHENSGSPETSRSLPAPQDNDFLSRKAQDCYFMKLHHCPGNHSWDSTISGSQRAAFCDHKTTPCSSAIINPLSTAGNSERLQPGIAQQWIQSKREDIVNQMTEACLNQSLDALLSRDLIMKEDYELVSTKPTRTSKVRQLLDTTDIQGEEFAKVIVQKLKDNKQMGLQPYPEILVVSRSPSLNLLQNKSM

Structure (SMILES) | pIC50 (UniProt Q15831; cell material: Lysate mix) | pIC50 (UniProt P36507; cell material: Lysate mix) | pIC50 (EPHB3) | pIC50 (HIPK3; cell material: Lysate mix) | pIC50 (FGFR4) | pIC50 (RIPK2) | pIC50 (PCTK3; cell material: Lysate mix) | pIC50 (PRKX; cell material: Lysate mix) | pIC50 (PKMYT1; cell material: Lysate mix) | pIC50 (UniProt Q15831; cell material: Jurkat lysate) | pIC50 (UniProt P36507; cell material: Jurkat cells) | pIC50 (UniProt P36507; cell material: Jurkat lysate) | pIC50 (HIPK3; cell material: Jurkat cells) | pIC50 (HIPK3; cell material: Jurkat lysate) | pIC50 (PCTK3; cell material: Jurkat cells) | pIC50 (PCTK3; cell material: Jurkat lysate) | pIC50 (PRKX; cell material: Jurkat cells) | pIC50 (PRKX; cell material: Jurkat lysate) | pIC50 (PKMYT1; cell material: Jurkat cells) | pIC50 (PKMYT1; cell material: Jurkat lysate)
CCNC(=O)c1cc(Nc2cc(C)[nH]n2)nc(N2CCN(Cc3ccc(S(=O)(=O)F)cc3)CC2)n1 | 4.61 | < 4.52 | < 4.52 | 4.62 | < 4.52 | < 4.52 | < 4.52 | < 4.52 | < 4.52 |  |  |  |  |  |  |  |  |  |  | 
CCNC(=O)c1cc(Nc2cc(C3CC3)[nH]n2)nc(N2CCN(Cc3ccc(S(=O)(=O)F)cc3)CC2)n1 | 5.4 | 5.73 | < 4.52 | 5.74 | < 4.52 | < 4.52 | 5.36 | 5 | < 4.52 |  |  |  |  |  |  |  |  |  |  | 
Cc1cc(Nc2cc(C(=O)NCCNC(=O)OC3CC/C=C/CCC3)nc(N3CCN(Cc4ccc(S(=O)(=O)F)cc4)CC3)n2)n[nH]1 (stereo not given) | < 4.52 | < 4.52 | < 4.52 | < 4.52 | < 4.52 | < 4.52 | < 4.52 | < 4.52 | < 4.52 |  |  |  |  |  |  |  |  |  |  | 
C#CCNC(=O)c1cc(Nc2cc(C3CC3)[nH]n2)nc(N2CCN(Cc3ccc(S(=O)(=O)F)cc3)CC2)n1 | 6.42 | 5.72 | < 4.52 | 5.76 | < 4.52 | < 4.52 | 5.2 | 5.26 | < 4.52 | 5.81 | 6.02 | < 4.52 | 5.92 | 4.89 | 6.2 | < 4.52 | 5.76 | < 4.52 | 5.67 | < 4.52
C#CCNC(=O)c1cc(Nc2cc(C)[nH]n2)nc(N2CCN(Cc3ccc(S(=O)(=O)F)cc3)CC2)n1 | 4.78 | < 4.52 | < 4.52 | 4.76 | < 4.52 | < 4.52 | < 4.52 | < 4.52 | < 4.52 |  |  |  |  |  |  |  |  |  |  | 
O=C(NCCNC(=O)c1cc(Nc2cc(C3CC3)[nH]n2)nc(N2CCN(Cc3ccc(S(=O)(=O)F)cc3)CC2)n1)OC1CC/C=C/CCC1 (stereo not given) | < 4.52 | < 4.52 | < 4.52 | < 4.52 | < 4.52 | < 4.52 | < 4.52 | < 4.52 | < 4.52 | < 4.52 | 5.27 | < 4.52 | 5.22 | < 4.52 | 5.7 | < 4.52 | 5.28 | < 4.52 |  | < 4.52
